# Structures can show the parent of a compound that is named as a salt. Where two headings read alike, the source gives them in different places.
# Experiments:
# [1] = test system: A-10 rat smooth muscle cell line; assay: microtubule depolymerization immunofluorescence assay; format: cell-based; settings: 24 h; 250 nM AAG1, 500 nM AAG7, 40 nM AAG16
# Procedure: A-10 rat smooth muscle cells were used since they grow as flat monolayers that are amenable to imaging. The A-10 cells were treated for twenty four (24) hours (h) with EtOH (control), 250 nM (nanomolar) AAG1, 500 nM AAG7, or 40 nM AAG16, respectively. Microtubules were then visualized by indirect immunofluorescence staining with beta-tubulin antibodies. […] Each of the compounds AAG1, AAG7, and AAG16 has potent nanomolar tubulin inhibitory activity. Compounds of the present invention having the structural Formulas III and IV, as set forth herein, inhibit the microtubule dynamics. The inhibition of microtubule dynamics hinders microtubule formation and results in mitotic arrest and initiation of apoptosis or programmed cell death.
# [2] = test system: MDA MB 435, SKOV3, SKOV3M6/6; assay: cytotoxicity towards panel of human cell lines
# Procedure: (§1) Antimitotic compounds AAG1, AAG7, AAG12, AAG16, AAG20, and AAG26, Taxol®, and combrestastatinA4, were evaluated for cytotoxity towards the panel of human cell lines MDA MB 435 (human breast cancer), SKOV3 (human ovarian cancer), and SKOV3M6/6 (Pgp infected human ovarian cancer). […] The IC50 is the inhibitory concentration required to effectuate fifty percent inhibition of cell growth.
# [3] = test system: SKOV3M6/6 (Pgp infected human ovarian cancer); assay: cytotoxicity towards Pgp infected ovarian cancer cell line; settings: for IC50: Homo sapiens; for calculated relative resistance value: SKOV3M6/6 versus SKOV3, FIG. 4
# Procedure: as §1
# [4] = test system: NCI 55 human tumor lines; assay: NCI 55 human tumor lines in vitro screen; format: cell-based; settings: all 55 tumor cell lines
# Text: FIGS. 5a and 5b show the results of testing compound AAG1 of the present invention using National cancer Institute (NCl) 55 human tumor lines. The cells lines, which represent leukemia, non-small cell lung cancer, colon cancer, central nervous system cancer, melanoma, ovarian cancer, renal cancer, prostate cancer, and breast cancer, are listed in FIG. 5. Testing was in accordance with the NCI Developmental Therapeutics Program (DTP) In Vitro Cell Line Screening Project (IVCLSP). Methodology for testing under IVCLSP is provided at http://dtp.nci.gov/branches/btb/ivclsp.html.
# GI50 is the concentration of chemical required to reduce the growth of treated cells to half that of untreated cells (i.e. control). GI50 represents the concentration of chemical required to effectuate fifty percent inhibition of cell growth.
# [5] = test system: MDA MB 435 human breast cancer; assay: flow cytometric analysis of cell cycle phase distribution; format: cell-based; settings: treatment for twenty four hours
# [6] = test system: purified tubulin; assay: inhibition of tubulin assembly; format: biochemical; settings: read-out: Inhibition of tubulin assembly IC50 ± SD
# Procedure: The effects of designed compounds 10-14 on the polymerization of purified tubulin were evaluated. This allows for the study of the direct interaction of the compounds with their intracellular target. The ability of these compounds to bind to the colchicine site on tubulin was evaluated by measuring inhibition of [^3H]colchicine binding to tubulin. […] It is therefore likely that 13 binds in the colchicine site.
# [7] = test system: colchicine site on tubulin; assay: inhibition of [3H]colchicine binding to tubulin; settings: 1 μM inhibitor
# Procedure: This allows for the study of the direct interaction of the compounds with their intracellular target. The ability of these compounds to bind to the colchicine site on tubulin was evaluated by measuring inhibition of [^3H]colchicine binding to tubulin.
# [8] = test system: MDA-MB-435 tumor cell line; assay: inhibition of proliferation, sulforhodamine B assay; format: cell-based; settings: read-out: IC50 ± SD (MDA-MB-435) Tumor cells
# Procedure: (§2) However, the reverse orientation of methoxy and methylamino on the naphthyl, compound 11, has no microtubule depolymerization inhibitory activity up to 10 000 nM.
# [9] = test system: β-III Overexpressing HeLa; assay: antiproliferative activity, isogenic HeLa pair, βIII tubulin; format: cell-based; settings: for Rr: HeLa cell line pair, wild type and βIII tubulin; for IC50: read-out: IC50 ± SD β-III Overexpressing HeLa
# Text: (§3) One mechanism of drug resistance that can lead to chemotherapy failure with tubulin targeting agents is the expression of the βIII isotype of tubulin.
# [10] = test system: Wild type HeLa; assay: antiproliferative activity, isogenic HeLa pair, wild type; format: cell-based; settings: read-out: IC50 ± SD Wild type HeLa
# Text: as §3
# [11] = test system: A-10 cells; assay: cell-based phenotypic screen of microtubule disrupting effects; set-up: species or system rat; settings: read-out: EC50 in A-10 cells (Tubulin depolymerization inhibitory acitivity)
# Procedure: as §2
# [12] = test system: tubulin; assay: antitubulin activities; format: cell-based; settings: for IC50: read-out: IC50 (antitubulin agent)
# Text: Compounds 1, 2 are cyclopenta pyrimidine compounds. Their antitubulin activities are set forth above. […] The structural differences between Compounds 1 and 2 lead to several pharmacological ramifications. Among them, the conformation of aniline rings maybe a pivotal factor that results in the affinity difference. In order to validate this, we set forth a preferred representative series of N-methyl-N-methoxynaphthyl cyclopenta[d]pyrimidin-4-amine (4) based on the high potent antibulin agent 3 (IC50=7.0 nM). All these preferred representative methoxynaphthyl substituted bicyclic compounds of this invention have the same function groups and molecular weight, similar Log D.
# [13] = Homo sapiens, MDA-MB-435, MDA-MB-435
molecule,measurement,setting,value
"COc1ccc(N(C)c2nc(C)nc3c2CC(C)C3)cc1 (centres unmarked) (as salt: chloride) [AAG26, N-(4-Methoxyphenyl)-N,2,6-trimethyl-6,7-dihydro-5H-cyclopenta[d]pyrimidin-4-aminium chloride]",melting point,,196 to 198 °C
"COc1ccc(N(C)c2nc(C)nc3oc(C)cc23)cc1 [AAG1, N-(4-methoxyphenyl)-N,2,6-trimethylfuro[2,3-d]pyrimidin-4-amine]","effect on microtubules (immunofluorescence, beta-tubulin antibodies)",[1],caused losses of microtubules
same,cytotoxic activity toward each of the human cancer cell lines tested,"[2]; MDA MB 435, SKOV3, SKOV3M6/6",have cytotoxic activity
same,IC50,[3],0.171 µM
same,calculated relative resistance value,[3],4.7
same,GI50,[4],single digit 10^−8 molar levels
same,percentage of cells in the G2/M phases,[5],increased approximately two-fold
"COc1ccc(N(C)c2nc(N)nc3c2CC(C)C3)cc1 (centres unmarked) [AAG7, N^4-(4-Methoxyphenyl)-N^4,6-dimethyl-6,7-dihydro-5H-cyclopenta[d]pyrimidine-2,4-diamine]","effect on microtubules (immunofluorescence, beta-tubulin antibodies)",[1],caused losses of microtubules
same,cytotoxic activity toward each of the human cancer cell lines tested,"[2]; MDA MB 435, SKOV3, SKOV3M6/6",have cytotoxic activity
"COc1ccc(N(C)c2ncnc3occ(C)c23)cc1 [AAG16, N-(4-methoxyphenyl)-N,5-dimethylfuro[2,3-d]pyrimidin-4-amine]","effect on microtubules (immunofluorescence, beta-tubulin antibodies)",[1],caused losses of microtubules
same,cytotoxic activity toward each of the human cancer cell lines tested,"[2]; MDA MB 435, SKOV3, SKOV3M6/6",have cytotoxic activity
same,IC50,[3],0.0084 µM
same,percentage of cells in the G2/M phases,[5],increased approximately two-fold
"COc1ccc(N(C)c2nc(C)nc3[nH]ccc23)cc1 [AAG20, N-(4-methoxyphenyl)-N,2-dimethyl-7H-pyrrolo[2,3-d]pyrimidin-4-amine]",cytotoxic activity toward each of the human cancer cell lines tested,"[2]; MDA MB 435, SKOV3, SKOV3M6/6",have cytotoxic activity
same,percentage of cells in the G2/M phases,[5],increased approximately two-fold
"COc1ccc(N(C)c2nc(C)nc3c2CC(C)C3)cc1 (centres unmarked) [AAG26, N-(4-Methoxyphenyl)-N,2,6-trimethyl-6,7-dihydro-5H-cyclopenta[d]pyrimidin-4-aminium chloride]",cytotoxic activity toward each of the human cancer cell lines tested,"[2]; MDA MB 435, SKOV3, SKOV3M6/6",have cytotoxic activity
same,IC50,[3],0.0032 µM
"COc1ccc(/C=C\c2cc(OC)c(OC)c(OC)c2)cc1O [CA4, combretastatin A-4, reference compound]",IC50,[6],[…]
same,Inhibition of colchicine binding % Inhibition ± SD,[7],90 ± 0.2%
same,IC50,[8]; MDA-MB-435,0.0034 ± 0.0006 µM
same,Rr,[9],0.72
same,IC50,[9],0.0025 ± 0.0007 µM
same,IC50,[10],0.0018 ± 0.0004 µM
same,EC50,[11]; A-10 cells,0.013 µM
COc1ccc(Nc2nc(C)nc3c2CC(C)C3)cc1 (centres unmarked) [Compound 1],antitubulin activity in words,[12],almost inactive
COc1ccc(N(C)c2nc(C)nc3c2CC(C)C3)cc1 (centres unmarked) [Compound 2],IC50,[12],0.0257 µM
COc1ccc(N(C)c2nc(C)nc3c2CCC3)cc1 [Compound 3],IC50,[12],0.007 µM
same,IC50,[8]; [13],0.007 ± 0.0007 µM
COc1ccc2c(N(C)c3ncnc4c3CCC4)cccc2c1 [Compound 10],EC50,"[11]; Rattus norvegicus, A10",> 10 µM
"COc1ccc2c(N(C)c3nc(C)nc4c3CCC4)cccc2c1 [Compound 11, N,2-dimethyl-N-(6′-methoxynaphthyl-1′-amino)-cyclopenta[d]pyrimidin-4-amine]",IC50,"[9]; Homo sapiens, HeLa",> 10 µM
same,IC50,"[10]; Homo sapiens, HeLa",> 10 µM
same,EC50,"[11]; Rattus norvegicus, A10",> 10 µM
COc1cccc2cc(N(C)c3ncnc4c3CCC4)ccc12 [Compound 12],IC50,[8]; [13],0.0337 ± 0.0034 µM
same,Rr,[9],1.07
same,IC50,"[9]; Homo sapiens, HeLa",0.014 ± 0.001 µM
same,IC50,"[10]; Homo sapiens, HeLa",0.015 µM
"COc1cccc2cc(N(C)c3nc(C)nc4c3CCC4)ccc12 [Compound 13, N,2-dimethyl-N-(5′-methoxynaphthyl-2′-amino)-cyclopenta[d]pyrimidin-4-amine]",IC50,[8]; [13],0.01 µM
same,IC50,[8]; MDA-MB-435,0.0102 ± 0.00046 µM
same,Rr,[9],1.0
same,IC50,"[9]; Homo sapiens, HeLa",0.004 ± 0.001 µM
same,IC50,"[10]; Homo sapiens, HeLa",0.004 ± 0.001 µM
COc1ccc(N(C)c2nc(C)nc3c2CCC3)c2ccccc12 [Compound 14],IC50,[8]; [13],0.234 ± 0.02 µM
same,Rr,[9],0.47
same,IC50,"[9]; Homo sapiens, HeLa",0.18 ± 0.04 µM
same,IC50,"[10]; Homo sapiens, HeLa",0.085 ± 0.005 µM
same,EC50,"[11]; Rattus norvegicus, A10",0.5 ± 0.0021 µM
"CC(=O)O[C@@]12CO[C@@H]1C[C@H](O)[C@@]1(C)C(=O)[C@H](O)C3=C(C)[C@@H](OC(=O)[C@H](O)[C@@H](NC(=O)OC(C)(C)C)c4ccccc4)C[C@@](O)([C@@H](OC(=O)c4ccccc4)[C@H]21)C3(C)C [Docetaxel, docetaxel, reference compound]",Rr,[9],0.31
same,IC50,"[9]; Homo sapiens, HeLa",0.013 ± 0.004 µM
same,IC50,"[10]; Homo sapiens, HeLa",0.004 ± 0.002 µM
"CC(=O)O[C@H]1C(=O)[C@@]2(C)[C@H]([C@H](OC(=O)c3ccccc3)[C@]3(O)C[C@H](OC(=O)[C@H](O)[C@@H](NC(=O)c4ccccc4)c4ccccc4)C(C)=C1C3(C)C)[C@]1(OC(C)=O)CO[C@@H]1C[C@@H]2O [Paclitaxel, paclitaxel, reference compound]",IC50,[3],4.4 µM
same,calculated relative resistance value,[3],2013
same,Rr,[9],0.33
same,IC50,"[9]; Homo sapiens, HeLa",0.016 ± 0.001 µM
same,IC50,"[10]; Homo sapiens, HeLa",0.0053 ± 0.002 µM
"N-(4-methoxy-phenyl)-6-methyl-5H-pyrrolo[3,2-d]pyrimidine-2,4-diamine [AAG12]",cytotoxic activity toward each of the human cancer cell lines tested,[2],have cytotoxic activity
same,percentage of cells in the G2/M phases,[5],increased approximately two-fold

# Source: patent publication US20140303188A1, “Substituted Cyclopenta Pyrimidine Bicyclic Compounds Having Antitmitotic And/Or Antitumor Activity And Methods Of Use Thereof” (DUQUESNE UNIVERSITY OF THE HOLY SPIRIT, priority 2008, published 2014)
